The target of data set [1] is T1, human liver GK (GST-hLGK1) (Homo sapiens, UniProt P35557).
T1 construct: with a BamHI site added to immediately before the initiation codon; made in house; host or cells: Escherichia coli BL21 (Stratagene), plasmid pGEX6P-2/hLGK1
T1 sequence (P35557 1-464 isoform P35557-3): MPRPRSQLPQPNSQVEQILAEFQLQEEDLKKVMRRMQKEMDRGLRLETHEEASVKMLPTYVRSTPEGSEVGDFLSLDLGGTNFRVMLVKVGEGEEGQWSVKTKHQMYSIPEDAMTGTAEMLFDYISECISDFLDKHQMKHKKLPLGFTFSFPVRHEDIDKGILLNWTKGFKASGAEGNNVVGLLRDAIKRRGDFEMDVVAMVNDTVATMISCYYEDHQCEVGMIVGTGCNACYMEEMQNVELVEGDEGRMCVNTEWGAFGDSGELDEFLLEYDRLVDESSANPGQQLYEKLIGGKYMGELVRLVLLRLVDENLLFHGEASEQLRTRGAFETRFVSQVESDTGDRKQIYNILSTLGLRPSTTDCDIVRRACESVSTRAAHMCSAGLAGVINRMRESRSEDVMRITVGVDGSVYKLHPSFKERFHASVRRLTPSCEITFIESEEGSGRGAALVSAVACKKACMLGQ
The data set can be described thus: Measurement of GK activation value. The data set is classed as biochemical. The note with it: GST-hLGK1 6 μg/mL, 5 mmol/L D-glucose, 50 μmol/L Mant-ATP, 60 min at 37° C.; concentration at midpoint between maximum activity value and control activity value. As to the method: GK enzyme reactions were performed in 50 mmol/L HEPES pH 7.4, 200 mmol/L KCl, 5 mmol/L MgCl2, 2 mmol/L DTT, containing 50 μmol/L 2′-(or -3′)-O—(N-methylanthraniloyl)adenosine 5′-triphosphate (Mant-ATP) (Jena Bioscience GmbH), 5 mmol/L D-glucose, 5% DMSO and 6 μg/mL GST-hLGK1 obtained in Reference Example 2A in a total volume 50 μL. The reactions were performed in 384 well black plates (Nalge Nunc International K.K.). Prior to the reaction, the enzyme and test compound were incubated for 10 min at 37° C., and 25 mM D-glucose solution (10 μL) was added to start the reaction.
After the incubation for 60 min at 37° C., the reaction was quenched by adding 25 μL of a quenching solution (containing 200 mM HEPES (pH 7.4), 20 mM MgCl2, 200 mM EDTA, 0.03% Triton-X 100, 0.3% Coating 3 reagent (Caliper Life Sciences, Inc.)).
Mant-ATP (substrate, 2′- (or -3′)-O—(N-methylanthraniloyl) adenosine 5′-triphosphate) and Mant-ADP (reaction resultant product) were separated from each well after the reaction by a microchip type capillary electrophoresis apparatus 250 HTS (Caliper Life Sciences, Inc.). The reaction rate [(reaction resultant product peak height)/(reaction resultant product peak height+substrate peak height)×100(%)] was calculated from the ratio of the substrate peak height and reaction resultant product peak height obtained by fluorescence detection (excitation wavelength 355 nm, measurement wavelength 460 nm) and used as the index of GK activity.
As a control group, the reaction rate was calculated in the same manner as above without the test compounds.
The percentage obtained by dividing the reaction rate of the well added with each concentration of the test compound (test compound addition group) by the reaction rate of the control group was taken as the GK activity value, and the concentration of the test compound at the midpoint between the maximum activity value of the test compound addition group and the control group activity value is shown as EC50 value.

The structures appear in SMILES notation.

`CC(C)Oc1cc(Oc2ccc(S(C)(=O)=O)cn2)cc2cc(C3=NCC(CC(C)(C)O)S3)[nH]c12` (single isomer, unassigned) [Example 65, 2-Methyl-1-{2-[7-(1-methylethoxy)-5-{[5-(methylsulfonyl)pyridin-2-yl]oxy}-1H-indol-2-yl]-4,5-dihydro-1,3-thiazol-5-yl}propan-2-ol] came in with an EC50 in data set [1] of 59 nM. In data set [1], `COCC(C)Oc1cc(Oc2ccc(S(C)(=O)=O)cc2)cc2cc(C3=NCC(CCO)S3)[nH]c12` (single isomer, unassigned) [Example 57, 2-(2-{7-(2-Methoxy-1-methylethoxy)-5-[4-(methylsulfonyl)phenoxy]-1H-indol-2-yl}-4,5-dihydro-1,3-thiazol-5-yl)ethanol] yielded an EC50 of 17 nM. Compound `CS(=O)(=O)c1ccc(Oc2cc(OCc3cccc(Cl)n3)c3[nH]c(C4=NCC(CC(=O)O)S4)cc3c2)cc1` (centres unmarked) [Example 7, (2-{7-[(6-Chloropyridin-2-yl)methoxy]-5-[4-(methylsulfonyl)phenoxy]-1H-indol-2-yl}-4,5-dihydro-1,3-thiazol-5-yl)acetic acid] showed a melting point of 175 to 176 °C. This compound gave an EC50 in data set [1] of 42 nM. In the same order, the values of `COc1cc(Oc2ccc(S(C)(=O)=O)nc2)cc2cc(C3=NCC(CC(=O)N4CCOCC4)S3)[nH]c12` (centres unmarked) [Example 82, 7-Methoxy-5-{[6-(methylsulfonyl)pyridin-3-yl]oxy}-2-{5-[2-(morpholin-4-yl)-2-oxoethyl]-4,5-dihydro-1,3-thiazol-2-yl}-1H-indole] are 148 to 149 °C and 42 nM. The compound `COCCNC(=O)CC1CN=C(c2cc3cc(Oc4ccc(S(C)(=O)=O)nc4)cc(OC)c3[nH]2)S1` (centres unmarked) [Example 78, N-(2-Methoxyethyl)-2-[2-(7-methoxy-5-{[6-(methylsulfonyl)pyridin-3-yl]oxy}-1H-indol-2-yl)-4,5-dihydro-1,3-thiazol-5-yl]acetamide] displayed a melting point of 175 to 176 °C. This compound also yielded an EC50 in data set [1] of 37 nM. Taken in the same sequence, the figures for `CNC(=O)CC1CN=C(c2cc3cc(Oc4ccc(S(C)(=O)=O)nc4)cc(OC)c3[nH]2)S1` (single isomer, unassigned) [Example 31, 2-[2-(7-Methoxy-5-{[6-(methylsulfonyl)pyridin-3-yl]oxy}-1H-indol-2-yl)-4,5-dihydro-1,3-thiazol-5-yl]-N-methylacetamide] were 196 to 197 °C and 28 nM. With `COCC(C)Oc1cc(Oc2ccc(S(C)(=O)=O)cc2)cc2cc(C3=NCC(CCO)S3)[nH]c12` (single isomer, unassigned) [Example 58, 2-(2-{7-(2-Methoxy-1-methylethoxy)-5-[4-(methylsulfonyl)phenoxy]-1H-indol-2-yl}-4,5-dihydro-1,3-thiazol-5-yl)ethanol], it took 15 nM to reach a half-maximal effect in data set [1] (EC50). Compound `COc1cc(Oc2ccc(S(C)(=O)=O)nc2)cc2cc(C3=NCC(CC(=O)NC[C@@H](C)O)S3)[nH]c12` (stereo partly drawn) [Example 81, N-[(2R)-2-Hydroxypropyl]-2-[2-(7-methoxy-5-{[6-(methylsulfonyl)pyridin-3-yl]oxy}-1H-indol-2-yl)-4,5-dihydro-1,3-thiazol-5-yl]acetamide] showed a melting point of 185 to 186 °C. The response in data set [1] was half-maximal at 38 nM (EC50). Consider `CNC(=O)CC1CN=C(c2cc3cc(Oc4ccc(S(C)(=O)=O)nc4)cc(OC)c3[nH]2)S1` (centres unmarked) [Example 30, 2-[2-(7-Methoxy-5-{[6-(methylsulfonyl)pyridin-3-yl]oxy}-1H-indol-2-yl)-4,5-dihydro-1,3-thiazol-5-yl]-N-Methylacetamide], for which the melting point was in the range of 201 to 202 °C. Regarding `CC(C)Oc1cc(Oc2ccc(S(C)(=O)=O)cn2)cc2cc(C3=NCC(CC(N)=O)S3)[nH]c12` (centres unmarked) [Example 67, 2-{2-[7-(1-Methylethoxy)-5-{[5-(methylsulfonyl)pyridin-2-yl]oxy}-1H-indol-2-yl]-4,5-dihydro-1,3-thiazol-5-yl}acetamide], the melting point lay in the range of 212 to 213 °C.

`CCOc1cc(Oc2ccc(S(C)(=O)=O)nc2)cc2cc(C3=NCC(CC(=O)NC)S3)[nH]c12` (single isomer, unassigned) [Example 98, 2-[2-(7-Ethoxy-5-{[6-(methylsulfonyl)pyridin-3-yl]oxy}-1H-indol-2-yl)-4,5-dihydro-1,3-thiazol-5-yl]-N-methylacetamide]: a half-maximal response in data set [1] (EC50) required 20 nM. For `COc1cc(Oc2ccc(S(C)(=O)=O)nc2)cc2cc(C3=NCC(CC(=O)NCC(C)(C)O)S3)[nH]c12` (centres unmarked) [Example 73, N-(2-Hydroxy-2-methylpropyl)-2-[2-(7-methoxy-5-{[6-(methylsulfonyl)pyridin-3-yl]oxy}-1H-indol-2-yl)-4,5-dihydro-1,3-thiazol-5-yl]acetamide], the melting point was in the range of 200 to 201 °C. The same measure, in the same setting: next, `CNC(=O)CC1CN=C(c2cc3cc(Oc4ccc(S(C)(=O)=O)cn4)cc(OC)c3[nH]2)S1` (centres unmarked) [Example 42, 2-[2-(7-Methoxy-5-{[5-(methylsulfonyl)pyridin-2-yl]oxy}-1H-indol-2-yl)-4,5-dihydro-1,3-thiazol-5-yl]-N-methylacetamide]: 207 to 209 °C. Compound `CCOC(=O)c1nnc(-c2cc3cc(Oc4ccc(S(C)(=O)=O)cc4)cc(OCc4ccccc4)c3[nH]2)s1` [Example 20, Ethyl 5-{7-(benzyloxy)-5-[4-(methylsulfonyl)phenoxy]-1H-indol-2-yl}-1,3,4-thiadiazole-2-carboxylate] came in with a melting point of 194 to 195 °C. The same measure, in the same setting: next, `COc1cc(Oc2ccc(S(C)(=O)=O)nc2)cc2cc(C3=NCC(CC(=O)NC4CC4)S3)[nH]c12` (centres unmarked) [Example 76, N-Cyclopropyl-2-[2-(7-methoxy-5-{[6-(methylsulfonyl)pyridin-3-yl]oxy}-1H-indol-2-yl)-4,5-dihydro-1,3-thiazol-5-yl]acetamide]: 248 to 249 °C; `COCC(COC)Oc1cc(Oc2ccc(S(C)(=O)=O)nc2)cc2cc(C3=NCC(CC(N)=O)S3)[nH]c12` (centres unmarked) [Example 35, 2-[2-(7-[2-Methoxy-1-(methoxymethyl)ethoxy]-5-{[6-(methylsulfonyl)pyridin-3-yl]oxy}-1H-indol-2-yl)-4,5-dihydro-1,3-thiazol-5-yl]acetamide]: 172 to 173 °C; `CS(=O)(=O)c1ccc(Oc2cc(OCc3cccc(Cl)n3)c3[nH]c(C4=NCC(CCO)S4)cc3c2)cc1` (centres unmarked) [Example 6, 2-(2-{7-[(6-Chloropyridin-2-yl)methoxy]-5-[4-(methylsulfonyl)phenoxy]-1H-indol-2-yl}-4,5-dihydro-1,3-thiazol-5-yl)ethanol]: 93 to 94 °C. The same measure, in the same setting: next, `CNC(=O)CC1CN=C(c2cc3cc(Oc4ccc(S(C)(=O)=O)nc4)cc(OC(C)COC)c3[nH]2)S1` (centres unmarked) [Example 87, 2-{2-[7-(2-Methoxy-1-methylethoxy)-5-{[6-(methylsulfonyl)pyridin-3-yl]oxy}-1H-indol-2-yl]-4,5-dihydro-1,3-thiazol-5-yl}-N-methylacetamide]: 107 to 109 °C; `CS(=O)(=O)c1ccc(Oc2cc(OCc3ccccc3)c3[nH]c(-c4nnc(CO)s4)cc3c2)cc1` [Example 21, (5-{7-(Benzyloxy)-5-[4-(methylsulfonyl)phenoxy]-1H-indol-2-yl}-1,3,4-thiadiazol-2-yl)methanol]: 159 to 160 °C.

On to `CS(=O)(=O)c1ccc(Oc2cc(OCc3cccc(Cl)n3)c3[nH]c(C4=NCC(CC(N)=O)S4)cc3c2)cc1` (centres unmarked) [Example 8, 2-(2-{7-[(6-Chloropyridin-2-yl)methoxy]-5-[4-(methylsulfonyl)phenoxy]-1H-indol-2-yl}-4,5-dihydro-1,3-thiazol-5-yl)acetamide], for which the melting point was 147 to 148 °C.

In turn, `CNC(=O)CC1CN=C(c2cc3cc(Oc4ccc(S(C)(=O)=O)nc4)cc(OC)c3[nH]2)S1` (single isomer, unassigned) [Example 32, 2-[2-(7-Methoxy-5-{[6-(methylsulfonyl)pyridin-3-yl]oxy}-1H-indol-2-yl)-4,5-dihydro-1,3-thiazol-5-yl]-N-methylacetamide] gave a melting point of 195 to 197 °C.

The record behind these values is US8673942B2, “Fused ring compounds and use thereof” (Takeda Pharmaceutical Company Limited, priority 2008, dated 2014).
